{"source": "paper PMC4344389", "about": "(Journal of medicinal chemistry, 2015)", "molecular_target": "T1, ALDH1A3 (Homo sapiens, UniProt P47895)", "T1 sequence (P47895 1-512)": "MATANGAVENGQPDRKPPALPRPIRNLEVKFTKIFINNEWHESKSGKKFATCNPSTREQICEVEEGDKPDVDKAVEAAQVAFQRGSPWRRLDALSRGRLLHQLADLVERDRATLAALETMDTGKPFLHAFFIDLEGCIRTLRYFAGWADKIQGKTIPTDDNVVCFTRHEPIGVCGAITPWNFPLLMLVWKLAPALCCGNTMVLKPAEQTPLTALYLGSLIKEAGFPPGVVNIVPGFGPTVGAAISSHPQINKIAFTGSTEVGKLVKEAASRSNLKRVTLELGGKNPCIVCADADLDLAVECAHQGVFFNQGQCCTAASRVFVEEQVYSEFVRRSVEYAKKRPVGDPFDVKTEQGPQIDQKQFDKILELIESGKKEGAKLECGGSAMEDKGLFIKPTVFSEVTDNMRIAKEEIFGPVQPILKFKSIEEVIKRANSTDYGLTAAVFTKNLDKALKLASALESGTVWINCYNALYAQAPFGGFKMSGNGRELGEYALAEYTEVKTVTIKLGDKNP", "assay": "Aldehyde dehydrogenase activity assay, propionaldehyde oxidation", "type": "biochemical"}
{"smiles": "CC(C)CCn1c(CN2CCN(C(=O)c3ccco3)CC2)nc2c1c(=O)n(C)c(=O)n2C", "note": "[CM026]", "values": [{"measurement": "effect on ALDH1A3", "setting": "20 µM compound", "value": "no effect"}, {"measurement": "effect on aldehyde oxidation catalyzed by ALDH1A3", "setting": "100 µM compound", "value": "modestly increased"}]}
